In PubChem BioAssay AID1552 (Sanford-Burnham Center for Chemical Genomics, 2009):
Active and inactive are the calls of the source. No rule for the calls is given here. Residues, ends and D or L forms follow the SMILES beside them.

What follows are compounds tested against Ubiquitin-conjugating enzyme E2 N (Homo sapiens) (UniProt P61088) (assay: NMR detection of UBE2N ligand binding – biophysical, purified protein (AID 1552)). Conditions: NMR binding to purified UBE2N.
Ubiquitin-conjugating enzyme E2 N (Homo sapiens), sequence (P61088 whole entry, looked up): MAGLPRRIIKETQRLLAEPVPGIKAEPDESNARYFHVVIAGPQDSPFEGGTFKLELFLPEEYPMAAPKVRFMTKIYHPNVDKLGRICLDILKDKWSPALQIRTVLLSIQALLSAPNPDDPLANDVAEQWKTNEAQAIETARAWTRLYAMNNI
With `O=C(O)CCNc1n[nH]c(=O)[nH]c1=O` the Kd was > 4 mM (inactive). `O=c1c(O)c(-c2ccccc2)oc2ccc3occc3c12` was tested, and the Kd was > 4 mM (inactive). `Cc1nnc(N2CCN(Cc3ccccc3)CC2)[nH]c1=O` was tested, and the Kd was > 4 mM (inactive). With `Nc1ccc(CN2CCS(=O)(=O)CC2)cc1` the Kd was > 4 mM (inactive). For `CCNC(CC(=O)Nc1cccc([N+](=O)[O-])c1)C(=O)O` (centres undefined), the Kd was > 4 mM (inactive). For `C=C1C[C@]23C[C@@]1(O)CC[C@H]2[C@@]12C=C[C@H](O)C(C)(C(=O)O1)[C@H]2[C@@H]3C(=O)O`, the Kd was > 4 mM (inactive). In the case of `CCCc1nc2ccccc2c2nc(N)nn12`, the Kd was > 4 mM (inactive). For `COCC(=O)Nc1cccc2ccccc12`, the Kd was > 4 mM (inactive). `O=C(O)CCC(=O)Nc1nnc(C(F)(F)F)s1` was tested, and the Kd was > 4 mM (inactive). For `OCCNc1ccccn1`, the Kd was > 4 mM (inactive). In the case of `COCCn1c(N)nc2c1c(=O)[nH]c(=O)n2C`, the Kd was > 4 mM (inactive). In the case of `O=C(O)C12CC3CC(CC(O)(C3)C1)C2`, the Kd was > 4 mM (inactive). With `COc1cc2c(cc1OC)C1=C(C#N)CCC(=O)N1CC2` the Kd was > 4 mM (inactive). In the case of `O=C(O)c1ccc(CN2CCCCC2)o1`, the Kd was > 4 mM (inactive). For `CC(=O)NC(=S)Nc1ccccc1N1CCOCC1`, the Kd was > 4 mM (inactive). With `Cc1ccccc1CSc1nnc(C)n1N` the Kd was > 4 mM (inactive). `O=C1OCCC1Sc1nc2ccccc2c(=O)[nH]1` (centres undefined) was tested, and the Kd was > 4 mM (inactive). For `OC[C@H]1O[C@@H](n2cnc3c(NCc4ccco4)ncnc32)[C@H](O)[C@@H]1O`, the Kd was > 4 mM (inactive). For `CC(=O)O[C@@H]1CC2C(C)(C)[C@@H](O)CC[C@]2(C)C2CC[C@@]3(C)[C@H](c4ccoc4)OC(=O)[C@H]4O[C@]43[C@@]21C` (some centres undefined), the Kd was > 4 mM (inactive). For `Cc1cc(C(=O)N2CCC3(CC2)OCCO3)cs1`, the Kd was > 4 mM (inactive). With `CC(=O)N(C)Cc1nc2ccccc2n1C` the Kd was > 4 mM (inactive). In the case of `Cc1cc(=O)[nH]c(NCC(=O)O)n1`, the Kd was > 4 mM (inactive). `C[C@H]1[C@H]2CCC3C4CC=C5C[C@@H](N(C)C)CC[C@]5(C)C4CC[C@@]32CN1C` (some centres undefined) was tested, and the Kd was > 4 mM (inactive). `CC(CCC(=O)O)[C@H]1CCC2C3C[C@H](O)[C@@H]4C[C@H](O)CC[C@]4(C)C3CC[C@@]21C` (some centres undefined) was tested, and the Kd was > 4 mM (inactive). With `Cc1nc2nc(COc3ccccc3)nn2c(C)c1Cl` the Kd was > 4 mM (inactive). `CC(CC(=O)NN)C1(O)CCCCC1` (centres undefined) was tested, and the Kd was > 4 mM (inactive). With `COC(=O)c1ccc(C(=S)N2CCOCC2)cc1` the Kd was > 4 mM (inactive). `O=CN1CCN(C2CC(=O)N(c3ccccc3)C2=O)CC1` (centres undefined) was tested, and the Kd was > 4 mM (inactive). `CC(=O)Nc1c(Cl)cnn(-c2ccccc2)c1=O` was tested, and the Kd was > 4 mM (inactive). With `OCc1c[nH]c2ccccc12` the Kd was > 4 mM (inactive). For `COc1ccc(-c2oc3ccccc3c(=O)c2O)cc1OC`, the Kd was > 4 mM (inactive). For `CC(=O)Nc1ccc(Nc2nnc(C)c(=O)[nH]2)cc1`, the Kd was > 4 mM (inactive). With `Cc1cc(-c2ccccc2)nc2cc(C(N)=O)nn12` the Kd was > 4 mM (inactive). `NCc1ccccc1N1CCCCC1` was tested, and the Kd was > 4 mM (inactive). With `CN(C)C(=S)Nc1ccccc1N1CCOCC1` the Kd was > 4 mM (inactive). For `NC(=O)CNC(=O)c1ccc2ccccc2n1`, the Kd was > 4 mM (inactive). With `CC(=O)Oc1c(C)c(C)c2c(c1C)CCC(C)(CCCC(C)CCCC(C)CCCC(C)C)O2` (centres undefined) the Kd was > 4 mM (inactive). For `O=C1CSC(=Nc2ccc(C(=O)O)cc2)N1`, the Kd was > 4 mM (inactive). With `CC1(C)CC[C@]2(C)CC[C@]3(C)C(=CCC4[C@@]5(C)CC[C@H](O)C(C)(C)C5CC[C@]43C)C2C1` (some centres undefined) the Kd was > 4 mM (inactive). `O=C(NC1CCS(=O)(=O)C1)c1cccs1` (centres undefined) was tested, and the Kd was > 4 mM (inactive). With `Cn1nc(-c2ccccc2)cc1N` the Kd was > 4 mM (inactive). `c1cnc(N2CCSCC2)nc1` was tested, and the Kd was > 4 mM (inactive). For `Cc1ccc(NC(=O)CN2C(=O)CSC2=O)cc1`, the Kd was > 4 mM (inactive). `CC(=O)O[C@H]1CCC2(C)C3=C(CCC2C1(C)C)[C@@]1(C)CC[C@@H](C(C)CCC=C(C)C)[C@]1(C)CC3` (some centres undefined) was tested, and the Kd was > 4 mM (inactive). `O=C1CCNc2cc3ccccc3cc21` was tested, and the Kd was > 4 mM (inactive). In the case of `O=C(O)CC1C(=O)NCCN1Cc1cccs1` (centres undefined), the Kd was > 4 mM (inactive). For `Cc1c(C(=O)N2CCOCC2)oc2c1C(=O)CC(C)(C)C2`, the Kd was > 4 mM (inactive). For `COc1ccc(/C=C2\NC(=S)N(C)C2=O)cc1O`, the Kd was > 4 mM (inactive). With `CCOC(=O)c1c(C)cc(OC)cc1O` the Kd was > 4 mM (inactive). For `CC(=O)Nc1ccc(N(C)C(C)=O)cc1`, the Kd was > 4 mM (inactive). `CCOCC(=O)NCc1n[nH]c(=O)c2ccccc12` was tested, and the Kd was > 4 mM (inactive). With `Cc1cc(C)n(C/C=C/Cn2nc(C)cc2C)n1` the Kd was > 4 mM (inactive). For `CSc1ncnc2nc[nH]c12`, the Kd was > 4 mM (inactive). `CNC(=O)c1ccccc1N` was tested, and the Kd was > 4 mM (inactive). For `Cn1c(O)c(/C=C2\C=CC=N2)c(=O)[nH]c1=S`, the Kd was > 4 mM (inactive). With `CCOc1ccc(C(=O)c2ccncc2)cc1` the Kd was > 4 mM (inactive). `CCC1C(=O)OCC1Cc1cncn1C` (centres undefined) was tested, and the Kd was > 4 mM (inactive). With `S=C(c1ccc2c(c1)OCO2)N1CCCC1` the Kd was > 4 mM (inactive). With `Cc1ccc2nc(SCCC#N)nc(C)c2c1` the Kd was > 4 mM (inactive). With `CC(=O)NCc1nc2ccccc2[nH]1` the Kd was > 4 mM (inactive). For `CC(=O)Nc1ccc2c(c1)n(C)c(=O)n2C`, the Kd was > 4 mM (inactive). In the case of `CC(C)c1ccccc1NC(=O)c1cnccn1`, the Kd was > 4 mM (inactive). For `O=C(O)c1cnn2ccccc12`, the Kd was > 4 mM (inactive). In the case of `NC1=NN(c2ccccc2)C(=O)C1`, the Kd was > 4 mM (inactive). For `Cn1c(=O)cc(O)c2ccccc21`, the Kd was > 4 mM (inactive). In the case of `CSc1nnc2[nH]c(=O)cc(N)n12`, the Kd was > 4 mM (inactive). For `Clc1ccc(SCCn2cncn2)cc1`, the Kd was > 4 mM (inactive). With `CC(=O)Nc1ccc2c(c1)CCCC2=O` the Kd was > 4 mM (inactive). With `C=C[C@@](C)(O)CCC1C(=C)C[C@H](OC(C)=O)C2C(C)(C)CCCC12C` (some centres undefined) the Kd was > 4 mM (inactive). `Cc1cc(C(=O)N2CCN(c3ncccn3)CC2)cs1` was tested, and the Kd was > 4 mM (inactive). With `CC(=O)OC1CCC2(C)C(=CC=C3C2CCC2(C)C3CCC2C(C)/C=C/C(C)C(C)C)C1(C)C` (centres undefined) the Kd was > 4 mM (inactive). `Nc1nc2ccc(N3CCOCC3)cc2s1` was tested, and the Kd was > 4 mM (inactive). For `CSc1nc(C)cc(-n2ccc(=O)[nH]c2=O)n1`, the Kd was > 4 mM (inactive). For `CC(=O)N[C@@H](CC(=O)O)C(=O)N[C@@H](CCC(=O)O)C(=O)O` (Ac-Asp-Glu-OH), the Kd was > 4 mM (inactive). In the case of `CC(=O)NS(=O)(=O)c1ccc(C)cc1`, the Kd was > 4 mM (inactive). For `O=C(O)CCCCCCCC(=O)O`, the Kd was > 4 mM (inactive). `CC(=O)Nc1ccc(Cl)c(C(N)=O)c1` was tested, and the Kd was > 4 mM (inactive). `NC(C(=O)O)C(O)c1ccccc1` (centres undefined) was tested, and the Kd was > 4 mM (inactive). For `O=c1c(O)c(-c2ccccc2)oc2cc(O)ccc12`, the Kd was > 4 mM (inactive). In the case of `COc1ccc(-c2nnc(-c3ccc(N)cc3)o2)cc1`, the Kd was > 4 mM (inactive). For `Cc1cc(C)n(S(=O)(=O)c2ccc(C(C)(C)C)cc2)n1`, the Kd was > 4 mM (inactive). `O=C(NN1CCOCC1)c1cccs1` was tested, and the Kd was > 4 mM (inactive). `NC(=O)CSc1ncnc2ccccc12` was tested, and the Kd was > 4 mM (inactive). In the case of `O=c1ccn([C@@H]2O[C@H](COP(=O)(O)OP(=O)(O)OP(=O)(O)O)[C@@H](O)[C@H]2O)c(=O)[nH]1`, the Kd was > 4 mM (inactive).
